Data taken from the supplement of paper PMC10307832.

How the values were obtained:
Experiment in all cases: relative viability (nuclei count vs DMSO), 5 days (fraction); higher = more cells survive
[1] = compound: NCC(=O)Nc1ccc(-n2nc(C(F)(F)F)cc2-c2ccc3c(ccc4ccccc43)c2)cc1 + CS(=O)(=O)CCNCc1ccc(-c2ccc3ncnc(Nc4ccc(OCc5cccc(F)c5)c(Cl)c4)c3c2)o1 [Lapatinib] (partner 2 µM)
Outline: (§1)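 Lung cancer cell lines, seeded in 1536-well plates, were treated the following day by pin tool with a single drug or with five library-drug doses (not always all listed) in √10 steps on top of a fixed anchor-drug dose. Cells were fixed and nuclei stained in one step after 5 days, and nuclei were counted. Relative viability is the nuclei count for treated wells divided by that for vehicle wells, reported as medians of duplicate plates.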

[2] = compound: C1CSC2=C(C(=O)N1)SC3=C2C=C(C=C3)O [kb NB 142-70] + Cc1cc(Nc2cc(N3CCN(C)CC3)nc(Sc3ccc(NC(=O)C4CC4)cc3)n2)n[nH]1 [Tozasertib] (partner 0.1 µM)
Outline: as §1

[3] = compound: C1CSC2=C(C(=O)N1)SC3=C2C=C(C=C3)O [kb NB 142-70] + Nc1ncn([C@H]2C[C@H](O)[C@@H](CO)O2)c(=O)n1 [Decitabine] (partner 2 µM)
Outline: as §1

[4] = compound: NCC(=O)Nc1ccc(-n2nc(C(F)(F)F)cc2-c2ccc3c(ccc4ccccc43)c2)cc1 + CC(C)C[C@H](NC(=O)[C@H](Cc1ccccc1)NC(=O)c1cnccn1)B(O)O [Bortezomib] (partner 0.002 µM)
Outline: as §1

[5] = compound: C1CSC2=C(C(=O)N1)SC3=C2C=C(C=C3)O [kb NB 142-70] + N=C(N)NC(=N)NCCc1ccccc1 [Phenformin] (partner 250 µM)
Outline: as §1

Cell Line	relative viability ([1]; first compound 0.02 µM)	relative viability ([1]; first compound 0.06325 µM)	relative viability ([1]; first compound 0.2 µM)	relative viability ([1]; first compound 0.6325 µM)	relative viability ([1]; first compound 2 µM)	relative viability ([2]; first compound 0.1 µM)	relative viability ([2]; first compound 1 µM)	relative viability ([2]; first compound 3.162 µM)	relative viability ([3]; first compound 0.1 µM)	relative viability ([3]; first compound 1 µM)	relative viability ([3]; first compound 3.162 µM)	relative viability ([4]; first compound 0.02 µM)	relative viability ([4]; first compound 0.06325 µM)	relative viability ([4]; first compound 0.2 µM)	relative viability ([4]; first compound 0.6325 µM)	relative viability ([4]; first compound 2 µM)	relative viability ([5]; first compound 0.1 µM)	relative viability ([5]; first compound 1 µM)	relative viability ([5]; first compound 3.162 µM)
NCI-H1650	0.812	0.797	0.472	0.801	0.929	0.47	0.334	0.339	0.492	0.408	0.442	0.235	0.215	0.188	0.191	0.195	0.457	0.525	0.324
NCI-H1651	0.715	0.758	0.782	0.909	0.85	0.678	0.748	0.311	0.61	0.607	0.491	0.961	0.919	0.977	0.909	0.985	0.327	0.321	0.205
NCI-H1666	0.59	0.61	0.588	0.744	0.604	0.642	0.614	0.479	0.76	0.712	0.603	0.788	0.769	1.03	0.951	0.906	0.558	0.526	0.467
NCI-H1734	1.05	1.01	1.15	1.03	0.853	0.271	0.263	0.234	0.525	0.46	0.348	1.1	0.957	0.886	1.02	0.891	0.371	0.346	0.267
NCI-H1755	1.01	1	1.07	1.02	1.06	0.627	0.492	0.63	0.7	0.729	0.727	0.892	0.935	0.958	0.946	0.978	0.586	0.587	0.638
NCI-H1915	0.922	0.939	0.942	0.95	0.996	0.445	0.397	0.276	0.263	0.246	0.23	0.889	1.01	0.964	0.932	1.03	0.365	0.359	0.258
NCI-H1975	0.816	0.915	0.854	0.91	0.969	0.787	0.746	0.28	0.431	0.388	0.295	0.37	0.414	0.44	0.345	0.426	0.394	0.366	0.235
NCI-H1993	0.754	0.707	0.859	0.909	0.901	0.604	0.648	0.536	0.63	0.589	0.514	1.1	1.28	1.08	1.15	1.21	0.567	0.488	0.549
NCI-H2009	0.872	0.948	0.868	0.935	0.958	0.75	0.649	0.48	0.371	0.38	0.375	0.911	1.05	0.825	0.963	1.08	0.477	0.547	0.429
NCI-H2023	0.747	1.2	0.476	0.838	0.74	0.367	0.358	0.276	0.218	0.213	0.149	0.993	1.13	0.724	0.932	0.904	0.382	0.44	0.391
NCI-H2085	0.718	0.78	0.742	0.813	0.818	0.796	0.825	0.661	0.55	0.522	0.448	1.09	1.05	1.03	1	1.07	0.706	0.756	0.371
NCI-H2087	1.02	0.988	1.02	1.11	1.15	0.267	0.201	0.141	0.277	0.245	0.189	0.818	0.743	0.621	0.649	0.896	0.432	0.555	0.411
NCI-H2126	0.792	0.763	0.787	0.793	0.751	0.805	0.858	0.823	0.555	0.616	0.571	1.12	1.15	1.15	1.13	1.14	0.525	0.507	0.551
NCI-H2347	0.883	0.939	0.955	1.03	0.884	0.69	0.589	0.506	0.651	0.613	0.58	0.956	1.18	1.02	1.12	0.945	0.412	0.349	0.381
NCI-H2405	1.05	1.12	1.13	1.02	1.13	0.785	0.695	0.652	0.727	0.783	0.648	0.924	1.04	0.999	0.961	0.987	0.397	0.375	0.356
NCI-H3122	1.08	1.05	1.01	0.988	0.934	0.366	0.459	0.165	0.487	0.371	0.419	1.02	1.02	0.984	1	1.05	0.412	0.396	0.347
